# Columns and labels:
# Details in all cases: antibiotic alone
# [1] = system: C. freundii overproducing chromosomally-mediated class C β-lactamase; test: MIC of third-generation cephalosporins alone and with compounds 4 or 9 (Table 3); type: cell-based, Citrobacter freundii
# Description: Antimicrobial activity was investigated quantitatively to determine the minimum inhibitory concentrations (MICs) of the β-lactam/inhibitor combination necessary to inhibit the bacterial growth (Table 3). The MICs of β-lactams alone against the strains corresponded to a high level of resistance according to Clinical and Laboratory Standards Institute (CLSI) standards. (Clinical and Laboratory Standards Institute, Performance standards for antimicrobial susceptibility testing, 20th Informational Supplement, M100-S20 2010) The compounds had no measurable antibiotic activity when used alone.
# Susceptibility testing was performed and interpreted following the guidelines of CLSI. (Clinical and Laboratory Standards Institute, Performance standards for antimicrobial susceptibility testing, 20th Informational Supplement, M100-S20 2010) The compounds were dissolved in 50% DMSO, and dilutions were performed using Muller-Hinton medium. An adequate final concentration was obtained to determine the minimum inhibitory concentrations (MICs). The concentration of DMSO was maintained below 5%. The inhibitors were tested for synergy with the third-generation β-lactams ceftazidime and cefotaxime against several clinical bacteria. […] Each value reported reflects the average of three independent experiments. […] A Klebsiella pneumoniae isolate produced the inducible plasmid-mediated class C enzyme DHA-1. The Friedman's test and the Wilcoxon signed rank test were used to compare MIC values. Statistical significance was established at p<0.05.
# [2] = system: E. coli 146, AmpC-overproducing; test: MIC of third-generation cephalosporins alone and with compounds (Table 6); type: cell-based, Escherichia coli
# Procedure: (§1) The anti-resistance activity of inhibitors was investigated by the determination of the minimum inhibitory concentrations (MICs) of the β-lactam/inhibitor combination necessary to inhibit the growth of clinically-isolated bacteria resistant to third-generation cephalosporins via expression of class A or class C β-lactamases (Table 6).
# (§2) Susceptibility testing was performed and interpreted following the guidelines of CLSI. (Clinical and Laboratory Standards Institute, Performance standards for antimicrobial susceptibility testing, 20th Informational Supplement, M100-S20 2010) The compounds were dissolved in 50% DMSO, and dilutions were performed using Muller-Hinton medium. An adequate final concentration was obtained to determine the minimum inhibitory concentrations (MICs). The concentration of DMSO was maintained below 5%. The inhibitors were tested for synergy with the third-generation β-lactams ceftazidime and cefotaxime against several clinical bacteria. The ratio of β-lactams to inhibitors was 1:4. Each value reported reflects the average of three independent experiments. […] The Friedman's test and the Wilcoxon signed rank test were used to compare MIC values. Statistical significance was established at p<0.05.
# (§3) Table 6. MICs (μg/ml) of third-generation cephalosporins alone and in association with the compounds (ratio 1/4) for clinical bacteria. CTX, cefotaxime and CAZ, ceftazidime. ^1, AmpC-overproducing bacteria; ^2, CTX-M-14-producing E. coli; ^3, KPC-2-producing K. pneumoniae; ^4, OXA-48-producing K. pneumoniae; ^5, NDM-1-producing C. freundii.
# [3] = system: CTX-M-14-producing E. coli; test: as above; type: cell-based, Escherichia coli
# Procedure: as §1, §2, §3
# [4] = system: E. coli 142, AmpC-overproducing; test: as above; type: cell-based, Escherichia coli
# Procedure: as §1, §2, §3
# [5] = system: E. coli, AmpC-overproducing; test: as above; type: cell-based, Escherichia coli
# Procedure: as §1, §2, §3
# [6] = system: E. coli 145, AmpC-overproducing; test: as above; type: cell-based, Escherichia coli
# Procedure: as §1, §2, §3
# [7] = system: E. coli R1, AmpC-overproducing; test: as above; type: cell-based, Escherichia coli
# Procedure: as §1, §2, §3
# [8] = system: E. coli 144, AmpC-overproducing; test: as above; type: cell-based, Escherichia coli
# Procedure: as §1, §2, §3
smiles,measurement,setting,value
CO/N=C(\C(=O)N[C@@H]1C(=O)N2C(C(=O)O)=C(COC(C)=O)CS[C@H]12)c1csc(N)n1 [Cefotaxime],"MIC, cephalosporin alone",[1],16 µg/mL
same,"MIC, cephalosporin alone",[2],8 µg/mL
same,"MIC, cephalosporin alone",[3],256 µg/mL
same,"MIC, cephalosporin alone",[4],4 µg/mL
same,"MIC, cephalosporin alone",[5],8 µg/mL
same,"MIC, cephalosporin alone",[6],16 µg/mL
same,"MIC, cephalosporin alone",[7],4 µg/mL
same,"MIC, cephalosporin alone",[8],16 µg/mL
